Literature values in publication PMC9501525, “Conjugation of a Cationic Cell-Penetrating Peptide with a Novel Kunitzin-like Trypsin Inhibitor: New Insights for Enhancement of Peptide Bioactivities” (Pharmaceutics, 2022).

Key:
E. coli (ATCC 8739) = details: ref [26]; cited from earlier work
From the text: (§1) Table 3 MIC/MBC of kunitzin-OV2 and its relatives against different microorganisms. | column: TAT ^a

S. aureus (ATCC 6538) = details: ref [26]; cited from earlier work
From the text: as §1

[1] = test system: P. aeruginosa (ATCC 9027); details: ref [26]; cited from earlier work
From the text: as §1

MRSA (NCTC 12493) = details: ref [26]; cited from earlier work
From the text: as §1

C. albicans (ATCC 10231) = details: ref [26]; cited from earlier work
From the text: as §1

E. coli = test system: E. coli; design: method as in PMID 28943153; details: ref [41]; cited from earlier work

Substance | MBC (E. coli (ATCC 8739)) | MIC (E. coli (ATCC 8739)) | MBC (S. aureus (ATCC 6538)) | MIC (S. aureus (ATCC 6538)) | MBC [1] | MIC [1] | MBC (MRSA (NCTC 12493)) | MIC (MRSA (NCTC 12493)) | MBC (C. albicans (ATCC 10231)) | MIC (C. albicans (ATCC 10231)) | MBC (E. coli) | MIC (E. coli)
RKKRRQRRR [TAT, classical short cationic cell-penetrating peptide TAT48–56] | >128 µM | >128 µM | >128 µM | >128 µM | >128 µM | >128 µM | >128 µM | >128 µM | >128 µM | >128 µM |  | 
melittin: typical AMP, literature comparator, ref |  |  |  |  |  |  |  |  |  |  | 64 to 128 µg/mL | 40 to 42.5 µg/mL
